Reference: PMC10754118, “Lipophilic Nucleoside Triphosphate Prodrugs of Anti‐HIV Active Nucleoside Analogs as Potential Antiviral Compounds” (Advanced Science, 2023)
Read-outs that look alike come from different tables or passages of the source. Blank lines part the entries; values can stand above or below the molecule they belong to.

Tests used:
[1] = test system: HIV‐1 [HE]; assay: Anti-HIV activity, HIV-1 in wild-type CEM/0 cells; assay type: cell-based; conditions: for EC50: read-out: Antiviral activity CEM/0 HIV‐1 [HE] EC50
[2] = test system: HIV‐2 [ROD]; assay: Anti-HIV activity, HIV-2 in wild-type CEM/0 cells; assay type: cell-based; conditions: for EC50: read-out: Antiviral activity CEM/0 HIV‐2 [ROD] EC50
[3] = test system: HIV‐2 [ROD)]; assay: Anti-HIV activity, HIV-2 in thymidine kinase-deficient CEM/TK^− cells; assay type: cell-based
[4] = test system: CEM/0; assay: in vitro; conditions: read-out: Toxicity CEM/0 CC50; 50% cytostatic concentration, CEM proliferation
Description: (§1) All TriPPPro‐compounds 10 and 20, as well as their parent nucleosides and the corresponding NTPs, were evaluated for their antiviral activity (expressed as EC50 values) against HIV‐1 (wild‐type CEM/0 cells) and HIV‐2 (wild‐type CEM/0 cells and thymidine kinase‐deficient (CEM/TK^−) cells) with concomitant determination of cytotoxicity in the same cell line (Table 3 ).

[5] = molecular target: T1, HIV‐RT (Human immunodeficiency virus type 1 group M subtype B, UniProt P03366); design: method as in PMID 37647547; conditions: cited from earlier work
T1 construct: HIV reverse transcriptase (HIV‐RT); purchased Roboklon

[6] = Chemical hydrolysis in phosphate buffer saline (PBS, pH 7.3); assay type: physicochemical; conditions: PBS pH 7.3, 37 °C, read-out: PBS pH 7.3 t 1/2 (converted)
Description: (§2) Part 4. Chemical Hydrolysis of TriPPPro-compounds 10 and 20.
Second prepare 1.9 mM hydrolysis […]
(§3) Then, aliquots of 50 µL human

[7] = in vitro; conditions: human
Description: The hydrolysis properties of TriPPPro‐compounds 10 and 20 were evaluated in phosphate buffer saline (PBS, pH 7.3), pig liver esterase (PLE) or CEM/0 cell extracts. In both cases, hydrolysis products were analyzed by means of analytical RP18‐HPLC and the hydrolysis half‐lives (Table 1 , t1/2 ) of TriPPPro‐compounds 10 and 20 were calculated after complete consumption of the starting materials.
The hydrolysis of TriPPPro‐compounds 10 and 20 was carried out with CEM/0 cell extracts as well. […]
Part 6. Enzyme-Catalyzed Hydrolysis of TriPPPro-compounds 10 and 20 in CEM Cell […]
First prepare 3.0 mM hydrolysis solutions of Tri PPPro-compounds 10 and 20 in DMSO and H2O: 21 µL stock solution (50 mM in DMSO) and 154 µL DMSO, and 175 µL Milli-Q water. Three-twelve different samples (20 µL 3.0 mM hydrolysis solutions) were prepared in 2 mL Eppendorf® vials. Then, aliquots of 50 µL human CEM cell extracts were added to these samples and the reaction was started. The samples were incubated at 37 °C in a thermomixer for different time periods. The reaction was stopped by addition of 150 µL MeOH and kept on ice for 5 min. After centrifugation at 14,000 rpm for 12 min, the supernatants were filtered (Chromafil RC-20/15 MS, 0.2 μm) and stored in liquid nitrogen. When testing, aliquots of 60 µL (injection volume) were analyzed by analytical HPLC (HPLC Method). The calculation of t1/2 was obtained using Origin again.
(§4) Part 7. Hydrolysis of TriPPPro-compounds 10 and 20 in human plasma.
µL 3.0 mM hydrolysis solutions) were prepared in 2 mL Eppendorf® vials.

[8] = test system: pig liver esterase (PLE); assay: Hydrolysis with pig liver esterase (PLE); assay type: in vitro ADME; conditions: pig liver esterase (PLE) in PBS, PLE in PBS pH 7.3, 37 °C, read-out: PLE t 1/2 (converted)
From the text: Next, TriPPPro‐compounds 10 and 20 were exposed to PLE in PBS (pH 7.3) and the half‐lives of TriPPPro‐compounds 10 and 20 are listed in Table 1. […] In contrast, the cleavage of the AB (C4) masking group in TriPPPro‐compounds 10by–hy and 10bz–hz was triggered by ester hydrolysis and yielded the corresponding γ‐alkylated nucleoside triphosphate derivatives 20 (Figure 3B,D) and 21 (Figures S17 and S18, Supporting Information), respectively. […] Moreover, a very small amount of NDPs was observed, probably due to a reaction involving a nucleophilic reaction at the γ‐phosphate or γ‐phosphonate moiety (pathways d and f, Scheme 5). […]
as §2
Second prepare 1.9 mM hydrolysis
Part 5. Hydrolysis of TriPPPro-compounds 10 and 20 with PLE .
Second, 125 µL DMSO and 833 µL
62.5 µL of PLE solution in PBS (100
mixture was stored in the freezer (- 30 °C).
by analytical HPLC (HPLC Method).
similar to that for the chemical hydrolysis studies. […]
as §3

[9] = in vitro; conditions: human, plasma
Description: First prepare 50 mM solutions of TriPPPro-compounds 10 and 20 in DMSO. […]
First prepare 3.0 mM hydrolysis solutions of Tri PPPro-compounds 10 and 20 in DMSO and H2O: 21 µL stock solution (50 mM in DMSO) and 154 µL DMSO, and 175 µL Milli-Q water. Three-twelve different samples (20 […]
The calculation of t1/2 was obtained using Origin again.
as §4
µL 3.0 mM hydrolysis solutions) were prepared in 2 mL Eppendorf® vials. Then, aliquots of 50 µL human Plasma (Heparin or Citrate) were added to these samples and the reaction was started. The samples were […]
incubated at 37 °C in a thermomixer for different time periods. The reaction was stopped by addition of 150 µL MeOH and kept on ice for 5 min. After centrifugation at 14,000 rpm for 22 min, the supernatants were filtered (Chromafil RC-20/15 MS, 0.2 μm) and stored in liquid nitrogen. When testing, aliquots of 25 0r 30 µL (injection volume) were analyzed by analytical HPLC (HPLC Method). The calculation of t1/2 was obtained using Origin […]
Part 8. Preparation of cell extracts and human plasma. […]

[10] = in vitro; conditions: human, CEM/0 cells (wild-type CD4+ T-cells)
Description: as §1

[11] = wild-type CEM/0 cells, mean ±SD n = 2–3
[12] = thymidine kinase-deficient CEM/TK^− cells, mean ±SD n = 2–3; read-out: Antiviral activity CEM/TK^− HIV‐2 [ROD)] EC50
[13] = t 1/2 in human plasma (over heparin and citrate plasma)
[14] = Human immunodeficiency virus 1, CCRF-CEM, wild-type CEM/0 cells, mean ±SD n = 2–3
[15] = wild-type CEM/0 cells, vs parent nucleoside
[16] = Human immunodeficiency virus 2, CCRF-CEM, wild-type CEM/0 cells, mean ±SD n = 2–3
[17] = Human immunodeficiency virus 2, CEM-TK(-), thymidine kinase-deficient CEM/TK^− cells, mean ±SD n = 2–3; read-out: Antiviral activity CEM/TK^− HIV‐2 [ROD)] EC50

Structure (SMILES): Nc1nc(NC2CC2)c2ncn([C@H]3C=C[C@@H](COP(=O)(O)OP(=O)(O)OP(=O)(O)O)C3)c2n1 [ABCTP, reference compound]
EC50 [1, 11]: 1850 ± 2140 nM
EC50 [2, 11]: 1020 ± 130 nM
EC50 [3, 12]: 850 ± 400 nM
CC50 [4]: > 100000 nM

Structure (SMILES): O=c1[nH]c(=O)n([C@H]2C[C@H](O)[C@@H](COP(=O)(O)OP(=O)(O)OP(=O)(O)O)O2)cc1/C=C/Br [BVDUTP, reference compound]
EC50 [1, 11]: 4730 ± 3050 nM
EC50 [2, 11]: 5640 ± 4450 nM
EC50 [3, 12]: > 100000 nM
CC50 [4]: > 100000 nM

Structure (SMILES): O=c1[nH]c(=O)n([C@H]2C[C@H](F)[C@@H](COP(=O)(O)OP(=O)(O)OP(=O)(O)O)O2)cc1Cl [FddClUTP, reference compound]
EC50 [1, 11]: 840 ± 860 nM
EC50 [2, 11]: 650 ± 130 nM
EC50 [3, 12]: > 100000 nM
CC50 [4]: > 100000 nM

Structure (SMILES): Nc1nc(=O)n([C@@H]2CS[C@H](COP(=O)(O)OP(=O)(O)OP(=O)(O)O)O2)cc1F [FTCTP, reference compound]
EC50 [1, 11]: 28 ± 15 nM
EC50 [2, 11]: 43 ± 40 nM
EC50 [3, 12]: 25 ± 27 nM
CC50 [4]: > 100000 nM

Structure (SMILES): Cc1cn([C@H]2C=C[C@@H](COP(=O)(O)OP(=O)(O)OP(=O)(O)O)O2)c(=O)[nH]c1=O [d4TTP]
accepted by HIV‐RT as a substrate [5]: accepted

Structure (SMILES): O=c1ccn([C@H]2C[C@H](F)[C@@H](COP(=O)(O)OP(=O)(O)OP(=O)(O)O)O2)c(=O)[nH]1 [FddUTP, reference compound]
EC50 [1, 11]: 150 ± 130 nM
EC50 [2, 11]: 260 ± 320 nM
EC50 [3, 12]: 35400 ± 43900 nM
CC50 [4]: > 100000 nM

Structure (SMILES): CCCCCCCCCCCCCCCCCCP(=O)(OCCCC)OP(=O)(O)OP(=O)(O)OC[C@@H]1C=C[C@H](n2cnc3c(NC4CC4)nc(N)nc32)C1 (stereo partly drawn) [10hx]
half-life at 1.9 mM [6]: > 1000 h
half-life at 0.86 mM [7]: > 10 h
half-life at 0.45 mM [8]: > 150 h
half-life at 0.86 mM ([9]; Plasma (Citrate) t 1/2): > 20 h
half-life at 0.86 mM ([9]; Plasma (Heparin) t 1/2): > 20 h
half-life at 0.86 mM [9, 13]: > 8 h
EC50 ([1]; Human immunodeficiency virus 1, CCRF-CEM): 150 ± 140 nM
EC50 ([2]; Human immunodeficiency virus 2, CCRF-CEM): 44 ± 33 nM
EC50 ([3]; Human immunodeficiency virus 2, CEM-TK(-), read-out: Antiviral activity CEM/TK^− HIV‐2 [ROD)] EC50): 5.8 nM
CC50 [10]: 38600 nM

Structure (SMILES): Cc1cn([C@H]2C[C@H](F)[C@@H](COP(=O)(O)OP(=O)(O)OP(=O)(O)O)O2)c(=O)[nH]c1=O [FLTTP, reference compound]
EC50 [1, 11]: 7.6 ± 9.1 nM
EC50 [2, 11]: 18 ± 9 nM
EC50 [3, 12]: 4920 ± 2430 nM
CC50 [4]: > 100000 nM

Structure (SMILES): Cc1cn([C@H]2C=C[C@@H](COP(=O)(O)OP(=O)(O)O)O2)c(=O)[nH]c1=O [d4TDP]
accepted by HIV‐RT as a substrate [5]: accepted

Second part, led by results:

half-life at 1.9 mM [6]: 253 h
half-life at 0.86 mM [7]: 3 h
half-life at 0.45 mM [8]: > 150 h
half-life at 0.86 mM ([9]; Plasma (Citrate) t 1/2): > 20 h
half-life at 0.86 mM ([9]; Plasma (Heparin) t 1/2): > 8 h
half-life at 0.86 mM [9, 13]: > 8 h
EC50 [1, 14]: 24 ± 1.4 nM
EC50 [2, 16]: 46 ± 16 nM
EC50 [3, 17]: 4.8 ± 2.1 nM
Structure (SMILES): CCCCCCCCCCCCCCCCCCOP(=O)(OCCCC)OP(=O)(O)OP(=O)(O)OC[C@@H]1C=C[C@H](n2cnc3c(NC4CC4)nc(N)nc32)C1 (stereo partly drawn) [10hv, γ‐(C4;C18)‐ABCTP]
fold improvement compared to cycloSal‐ABCMP, HIV-1 ([1]; wild-type CEM/0 cells): 30 fold
fold higher activity than the parent nucleoside, HIV-1 [1, 15]: ~400 fold
fold improvement compared to cycloSal‐ABCMP, HIV-2 ([2]; wild-type CEM/0 cells): 16 fold
fold higher activity than the parent nucleoside, HIV-2 [2, 15]: 80 fold
fold improved activity compared to the parent nucleoside, HIV-2 ([3]; CEM/TK^− cells, vs parent nucleoside): 410 fold
fold higher activity compared to the corresponding compound 20 ([3]; HIV-2, CEM/TK^− cells, vs 20h): 33 fold
improvement of antiviral activity in CEM/TK^− cells compared to wild-type CEM/0 cells ([3]; same compound, CEM/TK^− vs CEM/0): tenfold
CC50 [10]: 39000 ± 4700 nM

half-life at 1.9 mM [6]: 984 h
half-life at 0.86 mM [7]: 8 h
half-life at 0.45 mM [8]: 0.25 h
half-life at 0.86 mM ([9]; Plasma (Citrate) t 1/2): 4.4 h
half-life at 0.86 mM ([9]; Plasma (Heparin) t 1/2): 7.6 h
half-life at 0.86 mM [9, 13]: 4.4 to 7.6 h
EC50 [1, 14]: 150 ± 150 nM
EC50 [2, 16]: 7.5 ± 8.1 nM
EC50 [3, 17]: 310 ± 26 nM
Structure (SMILES): CCCCCCCCCCCCCCCCCCP(=O)(OCc1ccc(OC(=O)CCCC)cc1)OP(=O)(O)OP(=O)(O)OC[C@H]1O[C@@H](n2cc(C)c(=O)[nH]c2=O)C[C@@H]1N=[N+]=[N-] (stereo partly drawn) [10bz, γ‐(AB‐C4)‐γ‐C‐(alkyl‐C18)‐AZTTP]
CC50 [10]: 58900 nM

half-life at 1.9 mM [6]: 418 h
half-life at 0.86 mM [7]: 3.3 h
half-life at 0.45 mM [8]: 0.22 h
half-life at 0.86 mM ([9]; Plasma (Citrate) t 1/2): 3.7 h
half-life at 0.86 mM ([9]; Plasma (Heparin) t 1/2): 5.2 h
EC50 [1, 14]: 190 ± 120 nM
EC50 [2, 16]: 5.2 ± 4.1 nM
EC50 [3, 17]: 500 ± 350 nM
Structure (SMILES): CCCCCCCCCCCCCCCCCCOP(=O)(OCc1ccc(OC(=O)CCCC)cc1)OP(=O)(O)OP(=O)(O)OCC1OC(n2cc(C)c(=O)[nH]c2=O)CC1N=[N+]=[N-] (stereo not drawn) [10by, γ‐(AB‐C4;alkyl‐C18)‐AZTTP]
CC50 [10]: 60100 nM
